Where two headings read alike, the source gives them in different places.
Tests used:
human TTK = molecular target: T1, human TTK (Homo sapiens, UniProt P33981); experiment: TTK inhibition assay (indirect ELISA); assay type: biochemical; conditions: GST-TTK 0.68 nM, 16 μM ATP; read-out: IC50 Ranges TTK
T1 construct: amino terminal GST fusion of full length human TTK; purchased Invitrogen
T1 sequence (P33981 1-857): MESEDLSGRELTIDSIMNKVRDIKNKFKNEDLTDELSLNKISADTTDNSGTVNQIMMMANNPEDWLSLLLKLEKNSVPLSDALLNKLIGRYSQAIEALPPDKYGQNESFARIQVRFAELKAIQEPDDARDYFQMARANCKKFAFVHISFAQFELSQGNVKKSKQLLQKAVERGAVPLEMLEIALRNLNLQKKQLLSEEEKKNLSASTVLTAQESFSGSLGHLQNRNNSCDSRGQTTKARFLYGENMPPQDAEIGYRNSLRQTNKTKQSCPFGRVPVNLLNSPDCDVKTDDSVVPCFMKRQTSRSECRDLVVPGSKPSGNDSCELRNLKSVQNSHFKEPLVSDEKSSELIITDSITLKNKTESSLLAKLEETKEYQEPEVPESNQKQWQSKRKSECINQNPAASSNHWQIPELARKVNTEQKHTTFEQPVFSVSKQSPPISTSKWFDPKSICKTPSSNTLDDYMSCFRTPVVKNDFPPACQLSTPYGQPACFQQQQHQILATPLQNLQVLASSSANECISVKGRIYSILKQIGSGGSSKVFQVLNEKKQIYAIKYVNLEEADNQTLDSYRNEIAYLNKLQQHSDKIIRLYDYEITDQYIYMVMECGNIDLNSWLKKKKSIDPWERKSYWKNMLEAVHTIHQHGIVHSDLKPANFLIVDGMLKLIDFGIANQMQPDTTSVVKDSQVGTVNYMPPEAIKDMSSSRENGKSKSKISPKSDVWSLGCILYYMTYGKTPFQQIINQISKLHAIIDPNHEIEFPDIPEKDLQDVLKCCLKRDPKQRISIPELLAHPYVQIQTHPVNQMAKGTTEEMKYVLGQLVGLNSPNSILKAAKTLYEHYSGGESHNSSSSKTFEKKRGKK

human PLK4 = molecular target: T2, human PLK4 (Homo sapiens, UniProt O00444); experiment: PLK4 inhibition assay (indirect ELISA); assay type: biochemical; conditions: GST-PLK4 4 nM, 15 μM ATP; read-out: IC50 Ranges PLK4
T2 construct: amino terminal GST fusion of residues 1-391 of human PLK4; made in house; host or cells: E. coli
T2 sequence (O00444 1-391): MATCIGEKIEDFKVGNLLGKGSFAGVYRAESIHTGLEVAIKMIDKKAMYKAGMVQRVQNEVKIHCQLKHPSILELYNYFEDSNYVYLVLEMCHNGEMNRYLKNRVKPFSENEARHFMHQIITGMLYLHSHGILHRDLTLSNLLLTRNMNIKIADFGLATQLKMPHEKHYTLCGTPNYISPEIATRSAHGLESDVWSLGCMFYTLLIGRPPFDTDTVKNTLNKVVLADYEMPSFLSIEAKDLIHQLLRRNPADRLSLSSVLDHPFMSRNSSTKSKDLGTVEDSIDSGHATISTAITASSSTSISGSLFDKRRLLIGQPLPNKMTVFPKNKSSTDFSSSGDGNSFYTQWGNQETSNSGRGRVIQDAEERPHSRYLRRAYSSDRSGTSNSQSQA
How it was run: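 Compounds were tested either at a single 10 μM dose or across 10-point titrations (typically 0.5 to 0.001 μM), preincubated 15 min with 4 nM GST-PLK4 (human 1-391, dephosphorylated) before 15 μM ATP was added. MBP substrate phosphorylation over 30 min, pH 7.5 HEPES/MgCl2 buffer, read by HRP/TMB ELISA (450 nm). % inhibition vs. high-activity control; IC50 by logistic fit.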

Aurora B = molecular target: T3, Aurora B (Homo sapiens, UniProt Q96GD4); experiment: Aurora B inhibition assay (Z-Lyte); assay type: biochemical; conditions: 28 nM Aurora B, 128 μM ATP; read-out: IC50 Ranges Aurora B
T3 construct: purchased Invitrogen PV3970
Experimental: Aurora B inhibition was determined using the Z-Lyte assay kit from Invitrogen. The assay was performed using the recommended manufacturer's instructions with 128 μM ATP and 28 nM Aurora B (Invitrogen cat #PV3970). The % inhibition values were determined according to the manufacturer's directions and IC50 values were obtained using a non-linear 4 point logistic curve fit (XLfit4, IDBS)

[1] = test system: MDA-MB-231 breast cancer cells; experiment: Cell growth inhibition, Sulforhodamine B assay, MDA-MB-231; assay type: cell-based; conditions: Homo sapiens, 120 h, 5 days culture, SRB assay, read-out: Cell Line GI50 Range MDA-MB-231
[2] = test system: MDA-MB-468 breast cancer cells; experiment: Cell growth inhibition, Sulforhodamine B assay, MDA-MB-468; assay type: cell-based; conditions: 5 days culture, SRB assay, read-out: Cell Line GI50 Range MDA-MB-468
[3] = test system: HCT116 colon cancer cells; experiment: Cell growth inhibition, Sulforhodamine B assay, HCT116; assay type: cell-based; conditions: 5 days culture, SRB assay, read-out: Cell Line GI50 Range HCT116
HT29 colon cancer cells = experiment: Cell growth inhibition, Sulforhodamine B assay, HT29; assay type: cell-based; conditions: 5 days culture, SRB assay, read-out: Cell Line GI50 Range HT29
[4] = test system: PA-1 ovarian cancer cells; experiment: Cell growth inhibition, Sulforhodamine B assay, PA-1; assay type: cell-based; conditions: 5 days culture, SRB assay, read-out: Cell Line GI50 Range PA-1

T3 sequence (Q96GD4 whole entry): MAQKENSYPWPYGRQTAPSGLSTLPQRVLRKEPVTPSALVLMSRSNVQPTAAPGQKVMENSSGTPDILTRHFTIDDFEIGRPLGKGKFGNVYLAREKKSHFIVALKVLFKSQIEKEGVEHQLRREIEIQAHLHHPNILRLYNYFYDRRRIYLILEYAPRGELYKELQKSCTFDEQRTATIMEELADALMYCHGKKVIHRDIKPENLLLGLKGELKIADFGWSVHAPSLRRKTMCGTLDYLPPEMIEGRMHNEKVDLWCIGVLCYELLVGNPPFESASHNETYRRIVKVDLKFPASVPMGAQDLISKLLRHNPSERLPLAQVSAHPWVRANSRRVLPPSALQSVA

IC50 (human TTK) [µM]	IC50 (human PLK4) [µM]	IC50 (Aurora B) [µM]	GI50 [1] [µM]	GI50 ([2]; Homo sapiens, 120 h) [µM]	GI50 ([3]; Homo sapiens, HCT-116, 120 h) [µM]	GI50 (HT29 colon cancer cells; Homo sapiens, HT-29, 120 h) [µM]	GI50 ([4]; 120 h) [µM]	GI50 [2] [µM]	GI50 [3] [µM]	GI50 (HT29 colon cancer cells) [µM]	GI50 [4] [µM]	Compound
≤ 5	≤ 5	≤ 5	5 to 20	≤ 5	≤ 5	≤ 5	≤ 5					COc1ccc(NC(=O)Nc2ccc3[nH]nc(-c4ccc(OC5CCN(C)CC5)cc4)c3c2)c(C)c1 [Example A81, 1-(4-methoxy-2-methylphenyl)-3-(3-(4-((1-methylpiperidin-4-yl)oxy)phenyl)-1H-indazol-5-yl)urea]
≤ 5	≤ 5	≤ 5	≤ 5	≤ 5	≤ 5	≤ 5	≤ 5					CN1CCC(C(NC(=O)c2ccc3[nH]nc(-c4ccc(N5CCOCC5)cc4)c3c2)c2ccccc2)CC1 (stereo not drawn) [Example A85, N-((1-methylpiperidin-4-yl)(phenyl)methyl)-3-(4-morpholinophenyl)-1H-indazole-5-carboxamide]
≤ 5	≤ 5	≤ 5	≤ 5	≤ 5	≤ 5	≤ 5	≤ 5					CCc1cccc(CC)c1NC(=O)Nc1ccc2[nH]nc(-c3ccc(N4CCOCC4)cc3)c2c1 [Example A86, 1-(2,6-diethylphenyl)-3-(3-(4-morpholinophenyl)-1H-indazol-5-yl)urea]
≤ 5	≤ 5	≤ 5	≤ 5	≤ 5	≤ 5	≤ 5	≤ 5					CN1CCOc2ccc(-c3n[nH]c4ccc(NC(=O)C(c5ccsc5)N5CCCC5)cc34)cc2C1 (stereo not drawn) [Example A90, N-(3-(4-methyl-2,3,4,5-tetrahydrobenzo[f][1,4]oxazepin-7-yl)-1H-indazol-5-yl)-2-(pyrrolidin-1-yl)-2-(thiophen-3-yl)acetamide]
≤ 5	≤ 5	≤ 5	≤ 5	≤ 5	≤ 5	≤ 5	≤ 5					O=C(NC(c1ccccc1)C1CCC1)c1ccc2[nH]nc(-c3ccc(N4CCC(O)CC4)cc3)c2c1 (stereo not drawn) [Example A100, N-(cyclobutyl(phenyl)methyl)-3-(4-(4-hydroxypiperidin-1-yl)phenyl)-1H-indazole-5-carboxamide]
≤ 5	≤ 5	≤ 5	≤ 5	≤ 5	≤ 5	≤ 5	≤ 5					O=C(Nc1ccc2[nH]nc(-c3ccc(N4CCC(O)CC4)cc3)c2c1)C(c1ccccc1)C1CC1 (stereo not drawn) [Example A103, 2-cyclopropyl-N-(3-(4-(4-hydroxypiperidin-1-yl)phenyl)-1H-indazol-5-yl)-2-phenylacetamide]
≤ 5	≤ 5	≤ 5						≤ 5	≤ 5	≤ 5	≤ 5	O=C(Nc1ccc2[nH]nc(-c3ccc(NC4CCC(O)CC4)cc3)c2c1)C(c1ccsc1)N1CCCC1 (stereo not drawn) [Example A105, rel-N-(3-(4-(((1r,4r)-4-hydroxycyclohexyl)amino)phenyl)-1H-indazol-5-yl)-2-(pyrrolidin-1-yl)-2-(thiophen-3-yl)acetamide]
≤ 5	≤ 5	≤ 5	5 to 20	≤ 5	≤ 5	≤ 5	≤ 5					COCCN1CCC(Oc2ccc(-c3n[nH]c4ccc(NC(=O)[C@H](OC)c5ccccc5)cc34)cc2)CC1 [Example A107, (R)-2-methoxy-N-(3-(4-((1-(2-methoxyethyl)piperidin-4-yl)oxy)phenyl)-1H-indazol-5-yl)-2-phenylacetamide]
≤ 5	≤ 5	≤ 5		≤ 5	≤ 5	≤ 5	≤ 5					CC(C)(O)C1CCN(c2ccc(-c3n[nH]c4ccc(NC(=O)C(c5ccsc5)N5CCCC5)cc34)cc2)CC1 (stereo not drawn) [Example A111, N-(3-(4-(4-(2-hydroxypropan-2-yl)piperidin-1-yl)phenyl)-1H-indazol-5-yl)-2-(pyrrolidin-1-yl)-2-(thiophen-3-yl)acetamide]
≤ 5	≤ 5	≤ 5	≤ 5	≤ 5	≤ 5	≤ 5	≤ 5					COC1CCN(c2ccc(-c3n[nH]c4ccc(NC(=O)C(c5ccsc5)N5CCCC5)cc34)cc2)CC1 (stereo not drawn) [Example A116, N-(3-(4-(4-methoxypiperidin-1-yl)phenyl)-1H-indazol-5-yl)-2-(pyrrolidin-1-yl)-2-(thiophen-3-yl)acetamide]
≤ 5	≤ 5	≤ 5		≤ 5	≤ 5	≤ 5	≤ 5					O=C(NC(c1ccsc1)C1CC1)c1ccc2[nH]nc(-c3ccc(OC4CCN(CCO)CC4)cc3)c2c1 (stereo not drawn) [Example A117, N-(cyclopropyl(thiophen-3-methyl-3-yl)methyl)-3-(4-((1-(2-hydroxyethyl)piperidin-4-yl)oxy)phenyl)-1H-indazole-5-carboxamide]
≤ 5	≤ 5	≤ 5		≤ 5	≤ 5	≤ 5	≤ 5					Cc1ccccc1C(NC(=O)c1ccc2[nH]nc(-c3ccc(N4CCOCC4)cc3)c2c1)C1CC1 (stereo not drawn) [Example A119, N-(cyclopropyl(o-tolyl)methyl)-3-(4-morpholinophenyl)-1H-indazole-5-carboxamide]
≤ 5	≤ 5	≤ 5		≤ 5	≤ 5	≤ 5	≤ 5					O=C(Nc1ccc2[nH]nc(-c3ccc(N4CC(O)C4)cc3)c2c1)C(c1ccsc1)N1CCCC1 (stereo not drawn) [Example A120, N-(3-(4-(3-Hydroxyazetidin-1-yl)phenyl)-1H-indazol-5-yl)-2-(pyrrolidin-1-yl)-2-(thiophen-3-yl)acetamide]

Reference: patent US20140051679A1, “KINASE INHIBITORS AND METHOD OF TREATING CANCER WITH SAME” (UNIVERISTY HEALTH NETWORKS, priority 2011, published 2014)
